Reference: patent US9044038B2, “Method of improving sweetness qualities of stevia extract” (SAN-EI GEN F.F.I., INC., priority 2007, dated 2015)
Peptide text beside a SMILES is read from it.

Columns and labels:
[1] = Concentration of sweetener with the same degree of sweetness as a 6% aqueous sucrose solution (Example 14, Table 20); format: in vivo
Protocol: Aqueous solutions containing various sweeteners (stevia extract, siraitia grosvenori extract, licorice extract, thaumatin, aspartame, and neotame) in the concentrations shown in Table 20 were prepared.

panelists [2] = assay: Improvement in sweetness quality of sweeteners by additives, panel score (Example 14); format: in vivo; conditions: for improvement in sweetness quality, average score of twelve panelists: vs sweetener alone, 2 improvement, 1 slight improvement, 0 no improvement; for improvement in the sweetness quality of stevia extract: additive added to 0.03% stevia extract aqueous solution
Protocol: Aqueous solutions containing various sweeteners (stevia extract, siraitia grosvenori extract, licorice extract, thaumatin, aspartame, and neotame) in the concentrations shown in Table 20 were prepared. […] The evaluation was conducted by scoring the improvement in sweetness quality based on the criteria described below in comparison with an aqueous solution containing only each of the sweeteners (Control).

panelists [3] = assay: as above; format: in vivo; conditions: additive added to 0.03% stevia extract aqueous solution
[4] = Concentration having the same degree of sweetness as a 5% aqueous sucrose solution (Example 1, Table 1); format: in vivo
Description: The degree of sweetness of rebaudioside A and that of mogroside V depends on the pH. […] Citric acid and trisodium citrate were used to prepare pH3 and pH4.5 solutions, and sodium bicarbonate was used to prepare pH7 solutions.

[5] = general statement in description; cited from earlier work
[6] = additive Gentiooligosaccharide (Gentose#45) 0.4%
[7] = additive Highly branched cyclic dextrin (Cluster Dextrin) 0.07%
[8] = additive Magnesium chloride 0.05%
[9] = additive Magnesium sulfate 0.05%

| Compound | Concentration (%) exhibiting the same degree of sweetness as a 6% aqueous sucrose solution [1] | improvement in sweetness quality, average score of twelve panelists (panelists [2]; [6]) | improvement in sweetness quality, average score of twelve panelists (panelists [2]; [7]) | improvement in sweetness quality, average score of twelve panelists (panelists [2]; [8]) | improvement in sweetness quality, average score of twelve panelists (panelists [2]; [9]) | improvement in sweetness quality, average score of twelve panelists (panelists [2]; additive Naringin 0.0025%) | remaining aftertaste of sweetness in stevia extract (panelists [3]) | richness (body) of stevia extract (panelists [3]) | other results |
| --- | --- | --- | --- | --- | --- | --- | --- | --- | --- |
| COC(=O)[C@H](Cc1ccccc1)NC(=O)[C@@H](N)CC(=O)O [Aspartame, aspartame] (H-Asp-Phe-OMe) | 0.038% | 0.3 points | 0.3 points | 0.8 points | 0.7 points | 0.3 points |  |  |  |
| [Cl-].[Cl-].[Mg+2] [Magnesium chloride, magnesium chloride] |  |  |  |  |  |  | reduced | increased | improvement in the sweetness quality of stevia extract (panelists [2]): remarkably excellent improvements |
| O=S(=O)([O-])[O-].[Mg+2] [Magnesium sulfate, magnesium sulfate] |  |  |  |  |  |  | reduced | increased | improvement in the sweetness quality of stevia extract (panelists [2]): remarkably excellent improvements |
| C[C@H](CC[C@@H](O[C@@H]1O[C@H](CO[C@@H]2O[C@H](CO)[C@@H](O)[C@H](O)[C@H]2O)[C@@H](O)[C@H](O)[C@H]1O[C@@H]1O[C@H](CO)[C@@H](O)[C@H](O)[C@H]1O)C(C)(C)O)[C@H]1CC[C@@]2(C)[C@@H]3CC=C4[C@@H](CC[C@H](O[C@@H]5O[C@H](CO[C@@H]6O[C@H](CO)[C@@H](O)[C@H](O)[C@H]6O)[C@@H](O)[C@H](O)[C@H]5O)C4(C)C)[C@]3(C)[C@H](O)C[C@]12C [Mogroside V, mogroside V] |  |  |  |  |  |  |  |  | concentration having the same degree of sweetness as a 5% aqueous sugar solution ([4]; pH 3, substance singly): 0.03%; concentration having the same degree of sweetness as a 5% aqueous sugar solution ([4]; pH 4.5, substance singly): 0.03%; concentration having the same degree of sweetness as a 5% aqueous sugar solution ([4]; pH 7, substance singly): 0.0255%; degree of sweetness (sweetness intensity) [5]: about 300 times that of sucrose |
| C[C@@H]1O[C@@H](O[C@H]2[C@H](Oc3cc(O)c4c(c3)O[C@H](c3ccc(O)cc3)CC4=O)O[C@H](CO)[C@@H](O)[C@@H]2O)[C@H](O)[C@H](O)[C@H]1O [Naringin, naringin] |  |  |  |  |  |  | reduced | increased |  |
| COC(=O)[C@H](Cc1ccccc1)NC(=O)[C@H](CC(=O)O)NCCC(C)(C)C [Neotame, neotame] | 0.0008% | 0.8 points | 0.8 points | 0.8 points | 0.8 points | 1.0 points |  |  |  |
| C=C1C[C@@]23CC[C@H]4[C@@](C)(CCC[C@@]4(C)C(=O)O[C@@H]4O[C@H](CO)[C@@H](O)[C@H](O)[C@H]4O)[C@@H]2CC[C@]1(O[C@@H]1O[C@H](CO)[C@@H](O)[C@H](O[C@@H]2O[C@H](CO)[C@@H](O)[C@H](O)[C@H]2O)[C@H]1O[C@@H]1O[C@H](CO)[C@@H](O)[C@H](O)[C@H]1O)C3 [Rebaudioside A, rebaudioside A] |  |  |  |  |  |  |  |  | concentration having the same degree of sweetness as a 5% aqueous sugar solution ([4]; pH 3, substance singly): 0.0228%; concentration having the same degree of sweetness as a 5% aqueous sugar solution ([4]; pH 4.5, substance singly): 0.0219%; concentration having the same degree of sweetness as a 5% aqueous sugar solution ([4]; pH 7, substance singly): 0.02% |
| thaumatin | 0.0024% | 0.8 points | 0.5 points | 1.0 points | 1.3 points | 0.7 points |  |  |  |
